Values of other authors, collected in patent US20250009900A1, “OXAZAPHOSPHORINE ANTIBODY DRUG CONJUGATES AND METHODS OF USE” (LA Life Products, LLC, priority 2023, published 2025).

Conditions: combination with ipilimumab (anti-CTLA-4), in the clinic; cited from earlier work

Cn1c(COP(=O)(NCCBr)NCCBr)cnc1[N+](=O)[O-] [evofosfamide]
good clinical activity (patients): 15 of 22
